In PubChem BioAssay AID330 (DTP/NCI, 2004):
Values joined by “and” are separate entries in the source; they are usually repeats but may differ in a detail not shown here. Equal values may be shown once. Inconclusive results and toxic doses are left out. The calls were made as follows: active = survival T/C of 150% or more; inactive = T/C below 125% in these data.

System: P388 leukemia ip, CD2F1 mice, survival T/C
Assay: NCI In Vivo Anticancer Drug Screen. Data for tumor model P388 Leukemia (intraperitoneal) in CD2F1 (CDF1) mice
Conditions: endpoint: median survival time, higher = longer survival
Outline: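 Mice carrying the transplanted tumor received test compound or vehicle. Survival was recorded in each group, and the value is the treated-group measurement divided by that of the vehicle-treated control group.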

[1] = dose: 50.0 mg/kg/injection, schedule: Q01DX005 (ip), vehicle: saline with Tween-80
[2] = dose: 100.0 mg/kg/injection, schedule: Q01DX005 (ip), vehicle: saline with Tween-80
[3] = dose: 200.0 mg/kg/injection, schedule: Q01DX005 (ip), vehicle: saline with Tween-80
[4] = dose: 0.78 mg/kg/injection, schedule: Q01DX009 (ip), vehicle: saline
[5] = dose: 1.56 mg/kg/injection, schedule: Q01DX009 (ip), vehicle: saline
[6] = dose: 100.0 mg/kg/injection, schedule: Q01DX005 (ip), vehicle: Klucel (hydroxypropylcellulose) (HPC)
[7] = dose: 200.0 mg/kg/injection, schedule: Q01DX005 (ip), vehicle: Klucel (hydroxypropylcellulose) (HPC)
[8] = dose: 50.0 mg/kg/injection, schedule: Q01DX009 (ip), vehicle: saline with Tween-80
[9] = dose: 100.0 mg/kg/injection, schedule: Q01DX009 (ip), vehicle: saline with Tween-80
[10] = dose: 12.5 mg/kg/injection, schedule: Q01DX009 (ip), vehicle: saline with Tween-80
[11] = dose: 25.0 mg/kg/injection, schedule: Q01DX009 (ip), vehicle: saline with Tween-80
[12] = dose: 60.0 mg/kg/injection, schedule: Q01DX005 (ip), vehicle: saline
[13] = dose: 120.0 mg/kg/injection, schedule: Q01DX005 (ip), vehicle: saline
[14] = dose: 240.0 mg/kg/injection, schedule: Q01DX005 (ip), vehicle: saline
[15] = dose: 50.0 mg/kg/injection, schedule: Q01DX009 (ip), vehicle: Klucel (hydroxypropylcellulose) (HPC)
[16] = dose: 100.0 mg/kg/injection, schedule: Q01DX009 (ip), vehicle: Klucel (hydroxypropylcellulose) (HPC)

Measured: T/C

CCCCCc1cc(O)c2c(c1)OC(C)(C)c1ccc(C)cc1-2
inactive: dose: 64.0 mg/kg/injection, schedule: Q01DX009 (ip), vehicle: saline 115 % of control | dose: 128.0 mg/kg/injection, schedule: Q01DX009 (ip), vehicle: saline 97 % of control | dose: 256.0 mg/kg/injection, schedule: Q01DX009 (ip), vehicle: saline 109 % of control | dose: 512.0 mg/kg/injection, schedule: Q01DX009 (ip), vehicle: saline 106 % of control

Cc1c2c(ccc3ccccc32)c[n+]2ccccc12
inactive: dose: 6.25 mg/kg/injection, schedule: Q04DX003 (ip), vehicle: other 105 % of control | dose: 6.25 mg/kg/injection, schedule: Q04DX003 (ip), vehicle: saline 109 % of control | dose: 12.5 mg/kg/injection, schedule: Q04DX003 (ip), vehicle: other 105 % of control | dose: 12.5 mg/kg/injection, schedule: Q04DX003 (ip), vehicle: saline 109 % of control

CC(C)C1SCC(=O)N1N1C(=O)CSC1C(C)C (configuration not stated)
inactive: [1] 94 % of control | [2] 93 % of control | [3] 98 % of control

CCCCCCCCCCC[N+]1(CC)CCCC1
inactive: dose: 0.19 mg/kg/injection, schedule: Q01DX009 (ip), vehicle: saline 103 % of control | dose: 0.39 mg/kg/injection, schedule: Q01DX009 (ip), vehicle: saline 98 % of control and 109 % of control | [4] 98 % of control and 104 % of control and 115 % of control | [5] 99 % of control | dose: 3.12 mg/kg/injection, schedule: Q01DX009 (ip), vehicle: saline 111 % of control

CC1S(=O)(=O)O[Si](C)(C)CC[Si](C)(C)OS1(=O)=O
inactive: dose: 50.0 mg/kg/injection, schedule: Q01DX005 (ip), vehicle: Klucel (hydroxypropylcellulose) (HPC) 105 % of control | [6] 100 % of control | [7] 102 % of control

O/N=C/c1ccc2c(c1)OCO2
inactive: [8] 99 % of control | [9] 100 % of control | dose: 200.0 mg/kg/injection, schedule: Q01DX009 (ip), vehicle: saline with Tween-80 87 % of control

Cc1ccc(S(=O)(=O)/C=C/C(=O)c2cccs2)cc1
inactive: dose: 100.0 mg/kg/injection, schedule: Q04DX002 (ip), vehicle: saline 99 % of control | dose: 200.0 mg/kg/injection, schedule: Q04DX002 (ip), vehicle: saline 100 % of control | dose: 400.0 mg/kg/injection, schedule: Q04DX002 (ip), vehicle: saline 107 % of control

S=C(S)N1CCCNCC1 (tested in a mixture with another compound)
inactive: [10] 101 % of control and 89 % of control | [11] 92 % of control and 97 % of control | [8] 86 % of control and 97 % of control

CCN(CC)CCCN(C)Cc1c(-c2ccccc2)oc(-c2ccccc2)c1Cl
inactive: dose: 6.25 mg/kg/injection, schedule: Q01DX005 (ip), vehicle: saline with Tween-80 106 % of control | dose: 12.5 mg/kg/injection, schedule: Q01DX005 (ip), vehicle: saline with Tween-80 106 % of control | dose: 25.0 mg/kg/injection, schedule: Q01DX005 (ip), vehicle: saline with Tween-80 107 % of control | [1] 104 % of control

COC1=C(C)C(=O)c2[nH]c(Cl)c(C=O)c2C1=O
inactive: dose: 100.0 mg/kg/injection, schedule: Q01DX001 (ip), vehicle: saline with Tween-80 99 % of control | dose: 200.0 mg/kg/injection, schedule: Q01DX001 (ip), vehicle: saline with Tween-80 95 % of control

CC(C)(C)SC(=O)C1(C(O)c2ccccc2)CC1 (configuration not stated)
inactive: dose: 100.0 mg/kg/injection, schedule: Q04DX003 (ip), vehicle: Klucel (hydroxypropylcellulose) (HPC) 106 % of control | dose: 200.0 mg/kg/injection, schedule: Q04DX003 (ip), vehicle: Klucel (hydroxypropylcellulose) (HPC) 115 % of control | dose: 400.0 mg/kg/injection, schedule: Q04DX003 (ip), vehicle: Klucel (hydroxypropylcellulose) (HPC) 112 % of control

CCCCN(CCCC)CC(O)c1ccc2cc(Cl)cc(Cl)c2n1 (configuration not stated)
inactive: dose: 6.25 mg/kg/injection, schedule: Q01DX009 (ip), vehicle: saline with Tween-80 90 % of control | [10] 100 % of control | [11] 100 % of control

CC(Cc1ccccc1)N(C)Cc1ccc(-c2ccc(Cl)cc2)o1 (configuration not stated)
inactive: dose: 60.0 mg/kg/injection, schedule: Q01DX005 (ip), vehicle: saline with Tween-80 110 % of control | dose: 120.0 mg/kg/injection, schedule: Q01DX005 (ip), vehicle: saline with Tween-80 107 % of control | dose: 240.0 mg/kg/injection, schedule: Q01DX005 (ip), vehicle: saline with Tween-80 107 % of control

C=CC(CO)N1CC1 (configuration not stated)
inactive: [4] 108 % of control | [5] 108 % of control | dose: 3.13 mg/kg/injection, schedule: Q01DX009 (ip), vehicle: saline 108 % of control

c1ccc2c(c1)NC(c1ccc3c(c1)Sc1cc(C4Nc5ccccc5N4)ccc1O3)N2
inactive: [1] 95 % of control | [2] 102 % of control | [3] 100 % of control

CCCC(C#N)(CCCl)c1ccccc1 (configuration not stated)
inactive: dose: 100.0 mg/kg/injection, schedule: Q04DX003 (ip), vehicle: saline with Tween-80 100 % of control | dose: 200.0 mg/kg/injection, schedule: Q04DX003 (ip), vehicle: saline with Tween-80 104 % of control | dose: 400.0 mg/kg/injection, schedule: Q04DX003 (ip), vehicle: saline with Tween-80 95 % of control

CC(=O)CC1(O)CCCC1
inactive: [12] 98 % of control | [13] 105 % of control | [14] 100 % of control

CC1CCC(C(C)C)C(NC(=O)c2cccnc2)C1 (configuration not stated)
inactive: dose: 25.0 mg/kg/injection, schedule: Q04DX002 (ip), vehicle: Klucel (hydroxypropylcellulose) (HPC) 102 % of control | dose: 52.0 mg/kg/injection, schedule: Q04DX002 (ip), vehicle: Klucel (hydroxypropylcellulose) (HPC) 101 % of control | dose: 100.0 mg/kg/injection, schedule: Q04DX002 (ip), vehicle: Klucel (hydroxypropylcellulose) (HPC) 100 % of control | dose: 200.0 mg/kg/injection, schedule: Q04DX002 (ip), vehicle: Klucel (hydroxypropylcellulose) (HPC) 103 % of control

Nc1ccc(N)c2c1C(=O)c1ccccc1C2=O
inactive: [1] 110 % of control | [15] 105 % of control | [2] 105 % of control | [16] 103 % of control | [3] 105 % of control

CC(C)(C)c1ccnc(N=C2N=C(Nc3cc(C(C)(C)C)ccn3)c3ccccc32)c1
inactive: [8] 89 % of control | [9] 89 % of control

OCCCCP12(OC(C(F)(F)F)(C(F)(F)F)c3ccccc31)OC(C(F)(F)F)(C(F)(F)F)c1ccccc12
inactive: [15] 102 % of control | [16] 100 % of control | dose: 200.0 mg/kg/injection, schedule: Q01DX009 (ip), vehicle: Klucel (hydroxypropylcellulose) (HPC) 102 % of control

Nc1cc(F)ccc1CC(=O)O
inactive: [12] 103 % of control | [13] 99 % of control | [14] 99 % of control

S=C(Nc1ccc(N=Nc2ccccc2)cc1)SCc1ccc2c(c1)OCO2
inactive: dose: 50.0 mg/kg/injection, schedule: Q01DX009 (ip), vehicle: suspension in saline 96 % of control | dose: 100.0 mg/kg/injection, schedule: Q01DX009 (ip), vehicle: suspension in saline 90 % of control | dose: 200.0 mg/kg/injection, schedule: Q01DX009 (ip), vehicle: suspension in saline 92 % of control

Cn1cnc([N+](=O)[O-])c1Sc1ncn[nH]1
inactive: dose: 12.5 mg/kg/injection, schedule: Q01DX009 (ip), vehicle: saline 106 % of control | dose: 25.0 mg/kg/injection, schedule: Q01DX009 (ip), vehicle: saline 122 % of control | dose: 100.0 mg/kg/injection, schedule: Q01DX009 (ip), vehicle: saline 122 % of control | dose: 200.0 mg/kg/injection, schedule: Q01DX009 (ip), vehicle: saline 113 % of control

CC(C)C(NC(=O)CCNC(=O)OCc1ccccc1)C(=O)O (configuration not stated)
inactive: [6] 102 % of control | [7] 100 % of control | dose: 400.0 mg/kg/injection, schedule: Q01DX005 (ip), vehicle: Klucel (hydroxypropylcellulose) (HPC) 96 % of control
